# Reference: US4380535A, “Enkephalin degrading enzyme inhibitors” (priority 1981, dated 1983)
# Counter-ions that a name gives are not always drawn.
# How the values were obtained:
# [1] = test system: phenylbenozquinone-induced writhing; assay: phenylbenzoquinone-induced writhing test (modified Siegmund); type: in vivo; settings: mice, subcutaneous administration, at 15 minutes; limits (10.9-29.7)
# Experimental: Biol. Med., 95, 729-731 (1957). According to this procedure, test compound is administered at various doses to ten mice per dose level. The animals then receive intraperitoneal injection with 0.25 ml of the writhing agonist (a 0.02% solution of benzoquinone) 5 min before the beginning of a pre-selected, 10 min observation period. Typical observation periods include 10 to 20, 25 to 35, 40 to 50 and 55 to 65 min following administration of the test compound. The mice are observed during the observation period for the presence of an all-or-none writhing reaction.
# If the compound is active, its dose response and ED50 value are determined according to the method of D. J. Finney (Statistical Methods in Biological Assay, Griffin and Co., London, 1964).
# [2] = test system: opiate receptor; assay: opiate receptor affinity, 3H-naloxone displacement in rat brain homogenate (modified Chang); type: binding; settings: 3H-naloxone displacement (ID50) relative to morphine, with NaCl
# [3] = test system: enkephalin-degrading aminopeptidase; assay: inhibition of brain enzyme degradation of 3H-Leu-enkephalin (solubilized rat brain membrane preparation, TLC); type: biochemical; settings: 1.0×10^-3 M inhibitor, 5.0×10^-4 M 3H-Leu-enkephalin, 37° C., 1 hour; control 52%
# Experimental: The ability of the compounds of the invention to inhibit the brain enzyme degradation of enkephalins was studied in the following test procedure.
# Brain enzymes from rats are used in the procedure and for this purpose solubilized rat brain membrane preparation, prepared as follows, is used:
# Brains from young male Charles River Co. rats were homogenized in 30 volumes 50 mM Tris pH 7.7 with a Polytron (Brinkmann). The homogenate was centrifuged at 50,000 x g for 15 min. The supernatant was discarded the pellet resuspended in 50 mM Tris pH 7.7 and centrifuged at 50,000 x g for 15 min. The resultant pellet was resuspended, centrifuged and washed 3 additional times as described above. The membrane pellet was solubilized by resuspension in 15 volumes 50 mM Tris pH 7.7, 1% Triton X-100 and incubation at 37° C. for 45 min. […]
# This preparation is incubated at 37° C. for 1 hour in the presence of 5.0×10^-4 M ^3 H-Leu-enkephalin in 50 mM tris buffer and 1.0×10^-3 M of the inhibitor to be tested. […] Markers of Leu-enkephalin (LE), tyrosinge (T) and tyrosine-glycine-glucine (TGG) are run with all samples and the relevant areas are scraped into scintillation vials and counted. […]
# When N-Me-Tyr-D-Cys-Gly-N-MePhe-Thz-NH2 is tested in this procedure, the percentage of hydrolysis poructs (analyzed by TLC of tagged Leu-enkephalin) is as follows: […]
smiles,measurement,setting,value
"CN[C@@H](Cc1ccc(O)cc1)C(=O)N[C@H](CS)C(=O)NCC(=O)N(C)[C@@H](Cc1ccccc1)C(=O)N1CSC[C@H]1C(N)=O [N-Me-Tyr-D-Cys-Gly-N-MePhe-Thz-NH2, N^α -Methyl-L-tyrosyl-D-cysteinyl-glycyl-N-methyl-L-phenylalanyl-L-thiazolidine-4-carboxamide, acetate salt]",ED50,[1],18 mg/kg
same,relative displacement potency as compared to morphine (1),[2],2.6
same,percentage of hydrolysis products: Tyr,[3],14%
